Source: patent US10981926B2 (Janssen Pharmaceutica NV, priority 2016, dated 2021)

What was measured:
[1] = target: T1, wild-type Androgen Receptor (AR-wt) (Homo sapiens (Human), UniProt P10275); experiment: LNCaP-AR-wt ANT reporter assay (antagonist mode); type: cell-based; conditions: for IC50: pIC50 = −Log10(IC50 in Molar), read-out: LNCaP-AR-wt ANT pIC50 (converted); for Emax: read-out: LNCaP-AR-wt ANT MAX % Inh
[2] = target: T1, wild-type Androgen Receptor (AR-wt); experiment: LNCaP-AR-wt AG reporter assay (agonist mode); type: cell-based; conditions: for EC50: pEC50 = −Log10(EC50 in Molar), read-out: LNCaP-AR-wt AG pEC50 (converted); for Emax: read-out: LNCaP-AR-wt AG MAX % Stim
[3] = target: T2, F876L mutant Androgen Receptor (AR-F876L) (Homo sapiens (Human), UniProt P10275, F877L); experiment: LNCaP-AR-F876L ANT reporter assay (antagonist mode); type: cell-based; conditions: for IC50: pIC50 = −Log10(IC50 in Molar), read-out: LNCaP-AR-F876L ANT pIC50 (converted); for Emax: read-out: LNCaP-AR-F876L ANT MAX % Inh
[4] = target: T2, F876L mutant Androgen Receptor (AR-F876L); experiment: LNCaP-AR-F876L AG reporter assay (agonist mode); type: cell-based; conditions: for EC50: pEC50 = −Log10(EC50 in Molar), read-out: LNCaP-AR-F876L AG pEC50 (converted); for Emax: read-out: LNCaP-AR-F876L AG MAX % Stim
[5] = system: rGABA-gated Cl− channel; experiment: GABA-Gated Cl Channel Antagonist Radioligand Binding Assay; set-up: species or system rat; conditions: 10 μM single point, [35S]-TBPS, cerebral cortex membrane homogenates
Procedure, shortened: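 Rat cerebral cortex membranes (120 μg protein) incubated 120 min at 22° C with 3 nM […] in 50 mM Na2HPO4/KH2PO4 pH 7.4, 500 mM NaCl; nonspecific binding defined with 20 μM picrotoxinin. Bound label counted after filtration; values are percent inhibition of specific binding at 10 μM compound.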

[6] = system: androgen dependent signaling (androgen sensitive organs); experiment: Hershberger Assay; type: in vivo, rat; conditions: 3 mg/kg (positive control), 10 days, with TP 0.4 mg/kg, castrated rats, mean ± SD (n=6)
Experimental: The effect of AR antagonists on androgen dependent signaling in vivo was assessed using the Hershberger assay. In this assay, peripubertal castrated male Sprague-Dawley rats were administered AR antagonists described herein in the presence of testosterone (0.4 mg/kg testosterone propionate) and the weights of androgen dependent organs measured. Dosing was continued for 10 days and measurements taken 24 h after the last dose. The extent of antagonism of AR and consequent inhibition of organ growth was evaluated by comparison to the castration control. Compounds of Formula (I) were dosed orally QD and an endpoint assessment made by change in weight of 5 androgen sensitive organs (ASO): Paired Cowper's Glands (CG), Seminal Vesicles with Fluids and Coagulating Glands (SVCG), Glans Penis (GP), Ventral Prostate (VP) and Levator Ani-Bulbocavernosus Complex (LABC)). According to assay guidelines, statistically significant suppression of ASO is required in 2 of 5 organs for a compound to be classified as an anti-androgen (analysis was performed by t-test/Mann-Whitney).
Unless otherwise stated, compounds defined herein were administered at 30 mg/kg and flutamide (FT), positive control, at 3 mg/kg. All compounds were co-administered with testosterone propionate (TP, 0.4 mg/kg) which was also administered alone, untreated control, (castrated only rats served as the control for complete androgen blockade). A statistically significant change in ASO achieved in at least 2 of 5 organs was indicative of an active compound.

[7] = maximum % inhibition of R1881 control response over the tested concentration range
[8] = maximum % stimulation (agonist response) over the tested concentration range
[9] = antagonist mode, maximum % inhibition of R1881 control response over tested concentration range
[10] = agonist mode, maximum % stimulation over tested concentration range

T1 sequence (P10275 whole entry): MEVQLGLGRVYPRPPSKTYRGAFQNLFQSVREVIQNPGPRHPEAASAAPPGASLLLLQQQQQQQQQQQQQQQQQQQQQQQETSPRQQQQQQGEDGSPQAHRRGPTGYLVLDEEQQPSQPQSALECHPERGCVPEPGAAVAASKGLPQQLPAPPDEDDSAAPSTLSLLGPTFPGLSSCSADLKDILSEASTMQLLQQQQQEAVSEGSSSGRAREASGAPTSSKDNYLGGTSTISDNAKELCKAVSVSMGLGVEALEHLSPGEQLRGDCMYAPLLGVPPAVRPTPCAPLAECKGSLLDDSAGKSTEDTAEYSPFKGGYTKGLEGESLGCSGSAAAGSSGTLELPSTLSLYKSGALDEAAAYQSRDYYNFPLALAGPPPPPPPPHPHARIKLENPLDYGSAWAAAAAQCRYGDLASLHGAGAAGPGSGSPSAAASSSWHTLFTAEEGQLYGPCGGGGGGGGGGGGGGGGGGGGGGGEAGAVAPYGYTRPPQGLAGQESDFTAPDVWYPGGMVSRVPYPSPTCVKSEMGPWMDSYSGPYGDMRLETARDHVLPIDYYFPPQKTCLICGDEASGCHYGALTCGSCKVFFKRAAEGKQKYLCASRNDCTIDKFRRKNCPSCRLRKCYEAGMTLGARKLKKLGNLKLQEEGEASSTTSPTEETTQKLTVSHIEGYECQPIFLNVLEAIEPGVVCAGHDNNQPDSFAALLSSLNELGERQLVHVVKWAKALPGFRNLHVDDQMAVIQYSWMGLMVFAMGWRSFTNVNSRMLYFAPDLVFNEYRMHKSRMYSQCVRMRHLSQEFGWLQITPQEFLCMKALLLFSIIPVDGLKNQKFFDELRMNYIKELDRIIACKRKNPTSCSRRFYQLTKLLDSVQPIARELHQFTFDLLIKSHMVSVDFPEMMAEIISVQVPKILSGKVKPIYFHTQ
T2 sequence (P10275 whole entry F877L): as the sequence (P10275 whole entry) above, with F877L counted along it

IC50 ([1]; antagonist mode) | Emax [1, 7] | EC50 ([2]; agonist mode) | Emax [2, 8] | IC50 ([3]; antagonist mode) | Emax [3, 7] | EC50 ([4]; agonist mode) | Emax [4, 8] | rGABA-gated Cl− channel % inh @10 μM [5] | Emax [1, 9] | Emax [2, 10] | Emax [3, 9] | Emax [4, 10] | SMILES | ASO Organ Growth (% of TP control) SVCG [6] | ASO Organ Growth (% of TP control) VP [6]
269 nM | 101% | > 15100 nM | 0.1% | 141 nM | 101% | > 15100 nM | 0% | 25.6% |  |  |  |  | COCCn1cc2cc(N3C(=S)N(c4cnc(C#N)c(OC)c4)C(=O)C34CCC4)ccc2n1 [Cpd 175, 3-methoxy-5-[8-[2-(2-methoxyethyl)indazol-5-yl]-5-oxo-7-thioxo-6,8-diazaspiro[3.4]octan-6-yl]pyridine-2-carbonitrile] |  | 
219 nM | 106% | > 15100 nM | 0.2% | 97.7 nM | 104% | > 15100 nM | 0.2% | 36.7% |  |  |  |  | N#Cc1ncc(N2C(=O)C3(CCC3)N(c3ccc4nn(C5CCNCC5)cc4c3)C2=S)cc1Cl [Cpd 180, 3-chloro-5-[5-oxo-8-[2-(4-piperidyl)indazol-5-yl]-7-thioxo-6,8-diazaspiro[3.4]octan-6-yl]pyridine-2-carbonitrile] |  | 
513 nM | 100% | > 15100 nM | 0.3% | 275 nM | 101% | > 15100 nM | -0.1% | 37.9% |  |  |  |  | CN1CCC(n2ncc3cc(N4C(=S)N(c5cnc(C#N)c(Cl)c5)C(=O)C45CCC5)ccc32)CC1 [Cpd 183, 3-chloro-5-[8-[1-(1-methyl-4-piperidyl)indazol-5-yl]-5-oxo-7-thioxo-6,8-diazaspiro[3.4]octan-6-yl]pyridine-2-carbonitrile] |  | 
1380 nM |  | > 15100 nM |  | 1120 nM |  | > 15100 nM |  | 47.9% | 99.4% | -0.2% | 99.8% | 0% | C[N@+]1([O-])CC[C@@H](Oc2ccc(N3C(=S)N(c4cnc(C#N)c(C(F)(F)F)c4)C(=O)C34CCC4)cc2)CC1 [Cpd 191, 5-[8-[4-(1-methyl-1-oxido-piperidin-1-ium-4-yl)oxyphenyl]-5-oxo-7-thioxo-6,8-diazaspiro[3.4]octan-6-yl]-3-(trifluoromethyl)pyridine-2-carbonitrile] |  | 
407 nM |  | > 15100 nM |  | 380 nM |  | > 15100 nM |  | 27.9% | 101% | 0% | 100% | 0% | N#Cc1ncc(N2C(=O)C3(CCC3)N(c3ccc(CN4CCNCC4)cc3)C2=S)cc1Cl [Cpd 207, 3-chloro-5-[5-oxo-8-[4-(piperazin-1-ylmethyl)phenyl]-7-thioxo-6,8-diazaspiro[3.4]octan-6-yl]pyridine-2-carbonitrile] |  | 
339 nM |  | > 15100 nM |  | 209 nM |  | > 15100 nM |  | 18.6% | 101% | 0.4% | 100% | 0.5% | COc1cc(N2C(=O)C3(CCC3)N(c3ccc4c(cnn4C4CCN(CCO)CC4)c3)C2=S)cnc1C#N [Cpd 225, 5-[8-[1-[1-(2-hydroxyethyl)-4-piperidyl]indazol-5-yl]-5-oxo-7-thioxo-6,8-diazaspiro[3.4]octan-6-yl]-3-methoxy-pyridine-2-carbonitrile] |  | 
240 nM |  | > 15100 nM |  | 186 nM |  | > 15100 nM |  | 80.2% | 108% | -0.2% | 103% | 0% | N#Cc1ncc(N2C(=O)C3(CCC3)N(c3ccc(CC4CCC(N)CC4)cc3)C2=S)cc1C(F)(F)F (centres unmarked) [Cpd 233, 5-[8-[4-[(4-aminocyclohexyl)methyl]phenyl]-5-oxo-7-thioxo-6,8-diazaspiro[3.4]octan-6-yl]-3-(trifluoromethyl)pyridine-2-carbonitrile] |  | 
479 nM |  | > 15100 nM |  | 257 nM |  | > 15100 nM |  | 57.4% | 100% | 0.1% | 102% | 0% | N#Cc1ncc(N2C(=O)C3(CCC3)N(c3ccc(CC4CCNCC4)cc3)C2=S)cc1C(F)(F)F [Cpd 234, 5-[5-oxo-8-[4-(4-piperidylmethyl)phenyl]-7-thioxo-6,8-diazaspiro[3.4]octan-6-yl]-3-(trifluoromethyl)pyridine-2-carbonitrile] |  | 
457 nM |  | > 15100 nM |  | 224 nM |  | > 15100 nM |  | 44.7% | 106% | 1% | 105% | 0% | N#Cc1ncc(N2C(=O)C3(CCC3)N(c3ccc(SC4CCNCC4)cc3)C2=S)cc1C(F)(F)F [Cpd 240, 5-[5-oxo-8-[4-(4-piperidylsulfanyl)phenyl]-7-thioxo-6,8-diazaspiro[3.4]octan-6-yl]-3-(trifluoromethyl)pyridine-2-carbonitrile] |  | 
224 nM |  | > 15100 nM |  | 158 nM |  | > 15100 nM |  | 87.4% | 103% | -0.1% | 103% | 1.1% | CN1CCOC(c2ccc(N3C(=S)N(c4cnc(C#N)c(C(F)(F)F)c4)C(=O)C34CCC4)cc2)C1 (centres unmarked) [Cpd 241, 5-[8-[4-(4-methylmorpholin-2-yl)phenyl]-5-oxo-7-thioxo-6,8-diazaspiro[3.4]octan-6-yl]-3-(trifluoromethyl)pyridine-2-carbonitrile] |  | 
562 nM |  | > 15100 nM |  | 245 nM |  | > 15100 nM |  | 60.2% | 99.9% | 0.1% | 104% | -0.1% | CN1CCC(Sc2ccc(N3C(=S)N(c4cnc(C#N)c(C(F)(F)F)c4)C(=O)C34CCC4)cc2)CC1 [Cpd 242, 5-[8-[4-[(1-methyl-4-piperidyl)sulfanyl]phenyl]-5-oxo-7-thioxo-6,8-diazaspiro[3.4]octan-6-yl]-3-(trifluoromethyl)pyridine-2-carbonitrile] |  | 
1620 nM |  | > 15100 nM |  | 347 nM |  | > 15100 nM |  | 57.2% | 101% | 0.2% | 100% | 0.7% | N#Cc1ncc(N2C(=O)C3(CCC3)N(c3ccc(C4CNCCO4)cc3)C2=S)cc1C(F)(F)F (centres unmarked) [Cpd 243, 5-[8-(4-morpholin-2-ylphenyl)-5-oxo-7-thioxo-6,8-diazaspiro[3.4]octan-6-yl]-3-(trifluoromethyl)pyridine-2-carbonitrile] |  | 
 |  |  |  |  |  |  |  |  |  |  |  |  | CC(C)C(=O)Nc1ccc([N+](=O)[O-])c(C(F)(F)F)c1 [Flutamide, flutamide, reference compound] | 16.6 ± 16.3 % of TP control | 24.4 ± 35.5 % of TP control
